Active and inactive are the calls of the source. The rule behind the calls is not given here.
What was measured:
Rattus norvegicus [1] = experiment: Inhibition of rat passive cutaneous anaphylaxis following i.p. administration.; format: functional; conditions: ip
Rattus norvegicus [2] = experiment: Inhibition of rat passive cutaneous anaphylaxis following p.o. administration.; conditions: po
Rattus norvegicus [3] = experiment: Inhibition of rat passive cutaneous anaphylaxis following p.o. administration; Not active.

Structure (SMILES) | ED50 (Rattus norvegicus [1]) [mg/kg] | ED50 (Rattus norvegicus [2]) [mg/kg] | ED50 (Rattus norvegicus [3])
CN(C)c1cccc(NC(=O)c2nnn[n-]2)c1C#N.[Na+] | 2 | 1.7 | 
CCOC(=O)C(=O)Nc1cc(C#N)cc(NC(=O)c2nn[nH]n2)c1 | 0.2 |  | 
NC(=O)c1c(NC(=O)c2nnn[n-]2)cccc1N1CCOCC1.[Na+] | 0.2 |  | 
O=C(Nc1ccccn1)c1nnn[n-]1.[Na+] | 0.31 | 0.68 | 
N#Cc1cc(NC(=O)c2nnn[n-]2)cc(NC(=O)c2nnn[n-]2)c1.[Na+].[Na+] | 0.04 | 1 | 
N#Cc1cc(NC(=O)c2nnn[n-]2)c(Cl)c(NC(=O)c2nnn[n-]2)c1.[Na+].[Na+] | 0.3 |  | 
CN(C)c1cccc(NC(=O)c2nnn[n-]2)c1C(N)=O.[Na+] | 0.9 | 34 | 
NC(=O)c1cc(NC(=O)c2nnn[n-]2)cc(NC(=O)c2nnn[n-]2)c1.[Na+].[Na+] | 0.02 | > 10 | 
O=C(Nc1cccc(NC(=O)c2nnn[n-]2)n1)c1nnn[n-]1.[Na+].[Na+] | 0.02 | 0.1 | 
O=C(Nc1cc(C(F)(F)F)cc(NC(=O)c2nnn[n-]2)c1Cl)c1nnn[n-]1.[Na+].[Na+] | 1.6 |  | 
O=C(Nc1cc(Cl)cc(NC(=O)c2nnn[n-]2)n1)c1nnn[n-]1.[Na+].[Na+] | 0.2 | 2 | 
N#Cc1ccccc1NC(=O)c1nnn[n-]1.[Na+] | 0.5 | 10 | 
CN1CCN(c2cccc(NC(=O)c3nn[nH]n3)c2C#N)CC1 | 0.02 | 0.2 | 
COc1cccc(NC(=O)c2nn[nH]n2)c1C(N)=O | 0.1 | 0.2 | 
CN1CCN(c2cccc(NC(=O)c3nn[nH]n3)c2C(N)=O)CC1 | 0.01 | 2.3 | 
N#Cc1c(NC(=O)c2nn[nH]n2)cccc1N1CCOCC1 | 0.5 | 10 | 
NC(=O)c1c(NC(=O)c2nnn[n-]2)cccc1N1CCCCC1.[Na+] | 0.8 | 46 | 
CCNc1cccc(NC(=O)c2nnn[n-]2)c1C#N.[Na+] | 1.1 | 2.6 | 
N#Cc1c(NC(=O)c2nnn[n-]2)cccc1N1CCCCC1.[Na+] | 0.4 | 7 | 
O=C([O-])c1cc(=O)c2c(OCC(O)COc3cccc4oc(C(=O)[O-])cc(=O)c34)cccc2o1.[Na+].[Na+] [CROMOLYN SODIUM] | 8 |  | inactive

From ChEMBL document CHEMBL1121892, “5-Tetrazolecarboxamides and their salts: new orally active antiallergy agents” (1981)
